Laboratory results taken from publication PMC12280724 (Frontiers in Pharmacology, 2025).
Where “and” joins values, the source holds several entries; their conditions need not be identical. Identical values can stand only once.

Test: In vivo biodistribution of [^99mTc]Tc-carvedilol in healthy Swiss albino mice
Settings: for [^99mTc]Tc-carvedilol percentages of injected dose per Gram organ: i.v. tail vein
Source text: For biodistribution and receptor occupancy studies, 24 healthy adult Swiss albino mice (12 males and 12 females, aged 10–12 weeks, weighing 25–30 g) were obtained from the Egyptian National Research Center. Mice outside the 25–30 g weight range were excluded to ensure consistency in the biodistribution outcomes. Prior to the study, animals were housed in groups of four with ad libitum access to food and water and underwent a 2-week acclimatization period. After this adaptation phase, the mice were randomly assigned to the study groups using the lot-drawing method.
Given ^99mTc’s physical half-life of approximately 6 h, shorter imaging and sampling intervals are generally preferred to maximize radioactive signal fidelity and minimize decay-related variability. At 24 h post-injection, the residual ^99mTc activity could fall below quantifiable thresholds, potentially compromising the precision of biodistribution data. To prevent this, all data collection was restricted to early post-injection intervals—specifically […]—when radioactivity levels remain within optimal detection ranges for gamma counting. By omitting the 24 h time point altogether, the study design ensured that the radiotracer signal would be robust enough to yield statistically reliable biodistribution profiles without being confounded by the isotope’s exponential decay. Additionally, prior pilot studies were conducted to empirically determine the time window during which the radiochemical integrity and quantification signal-to-noise ratio remained analytically valid. These informed the exclusion of late-phase sampling and reinforced confidence in the reliability of kinetic data collected within the defined 6 h observation window. Therefore, six mice were euthanized at each selected time point via standardized cervical dislocation performed by trained personnel in accordance with institutional animal care guidelines. The procedure followed the AVMA Guidelines for the Euthanasia of Animals ([Kirkwood, 2013]), ensuring it was rapid, humane, and reproducible. To ensure procedural consistency, all cervical dislocations were performed by the same experienced researcher, following pre-established protocols that involved correct animal positioning, anatomical landmark identification, and verification of death through cessation of heartbeat and respiration. Immediately postmortem, body weight was recorded, and blood was collected via cardiac puncture.
Organ harvesting included the collection of the heart, liver, lungs, kidneys, spleen, stomach, intestines, muscle (right leg), bone, and brain. Following dissection, tissues were gently rinsed with isotonic saline to remove residual blood, promptly weighed, kept at low temperatures, and immediately subjected to gamma counting to preserve radiochemical integrity and avoid post-collection decay artifacts. No storage or freezing was used to prevent degradation or leakage of [^99mTc]Tc-carvedilol. Sample processing occurred in a shielded, on-site laboratory adjacent to the dissection area, ensuring minimal delay—typically less than 2 to 3 minutes—between collection and measurement.
To ensure methodological rigor and reproducibility, both experimental and computational components of the study were supported by a structured statistical framework. A total of 24 healthy albino mice (12 males, 12 females), aged 10–12 weeks and weighing 25 ± 3 g, were selected based on uniform health status, age, and weight to minimize inter-animal variability. Animals were maintained under controlled laboratory conditions (12-h light/dark cycle, standardized humidity, and temperature) with unrestricted access to food and water. For biodistribution analysis, animals were randomly assigned to four experimental groups, each consisting of six mice, each representing a distinct post-injection time point (15, 30, 60, and 120 min). […]

COc1ccccc1OCC[N]1CC(COc2cccc3[nH]c4ccccc4c23)[O][99Tc]12(=[O])[O]C(COc1cccc3[nH]c4ccccc4c13)C[N]2CCOc1ccccc1OC (racemic) [[^99mTc]Tc-carvedilol]
[^99mTc]Tc-carvedilol percentages of injected dose per Gram organ (Kidneys, 30 min post-injection): 32.753 ± 0.345 % ID/g organ and 32.753 ± 0.345 ^a % ID/g organ | [^99mTc]Tc-carvedilol percentages of injected dose per Gram organ (Kidneys, 60 min post-injection): 24.392 ± 0.345 % ID/g organ | [^99mTc]Tc-carvedilol percentages of injected dose per Gram organ (Kidneys, 120 min post-injection): 29.284 ± 0.012 % ID/g organ | Residual [^99mTc]Tc-carvedilol percentages of injected dose per Gram in non-targeted organs (Liver row, 15 min post-injection): 92.740 ± 0.03 % ID/g | Residual [^99mTc]Tc-carvedilol percentages of injected dose per Gram in non-targeted organs (Liver row, 30 min post-injection): 95.149 ± 0.01 % ID/g | Residual [^99mTc]Tc-carvedilol percentages of injected dose per Gram in non-targeted organs (Liver row, 120 min post-injection): 93.895 ± 0.04 % ID/g | [^99mTc]Tc-carvedilol percentages of injected dose per Gram organ (Liver, 15 min post-injection): 7.255 ± 0.023 % ID/g organ | [^99mTc]Tc-carvedilol percentages of injected dose per Gram organ (Liver, 30 min post-injection): 4.841 ± 0.568 % ID/g organ | [^99mTc]Tc-carvedilol percentages of injected dose per Gram organ (Liver, 120 min post-injection): 6.045 ± 1.020 % ID/g organ | Residual [^99mTc]Tc-carvedilol percentages of injected dose per Gram in non-targeted organs (Lung row, 15 min post-injection): 98.710 ± 0.01 % ID/g | Residual [^99mTc]Tc-carvedilol percentages of injected dose per Gram in non-targeted organs (Lung row, 30 min post-injection): 92.205 ± 0.01 % ID/g | Residual [^99mTc]Tc-carvedilol percentages of injected dose per Gram in non-targeted organs (Lung row, 60 min post-injection): 95.410 ± 0.00 % ID/g | Residual [^99mTc]Tc-carvedilol percentages of injected dose per Gram in non-targeted organs (Lung row, 120 min post-injection): 95.371 ± 0.04 % ID/g | [^99mTc]Tc-carvedilol percentages of injected dose per Gram organ (Lung, 15 min post-injection): 1.290 ± 0.232 % ID/g organ | [^99mTc]Tc-carvedilol percentages of injected dose per Gram organ (Lung, 30 min post-injection): 7.795 ± 0.060 % ID/g organ | [^99mTc]Tc-carvedilol percentages of injected dose per Gram organ (Lung, 60 min post-injection): 4.590 ± 0.000 % ID/g organ | [^99mTc]Tc-carvedilol percentages of injected dose per Gram organ (Lung, 120 min post-injection): 4.579 ± 0.111 % ID/g organ | Residual [^99mTc]Tc-carvedilol percentages of injected dose per Gram in non-targeted organs (Muscle row, 15 min post-injection): 99.309 ± 0.02 % ID/g | Residual [^99mTc]Tc-carvedilol percentages of injected dose per Gram in non-targeted organs (Muscle row, 30 min post-injection): 99.727 ± 0.01 % ID/g | Residual [^99mTc]Tc-carvedilol percentages of injected dose per Gram in non-targeted organs (Muscle row, 60 min post-injection): 99.321 ± 0.02 % ID/g | Residual [^99mTc]Tc-carvedilol percentages of injected dose per Gram in non-targeted organs (Muscle row, 120 min post-injection): 98.449 ± 0.03 % ID/g | [^99mTc]Tc-carvedilol percentages of injected dose per Gram organ (Muscle, 15 min post-injection): 0.671 ± 0.195 % ID/g organ | [^99mTc]Tc-carvedilol percentages of injected dose per Gram organ (Muscle, 30 min post-injection): 0.263 ± 0.215 % ID/g organ | [^99mTc]Tc-carvedilol percentages of injected dose per Gram organ (Muscle, 60 min post-injection): 0.659 ± 0.217 % ID/g organ | [^99mTc]Tc-carvedilol percentages of injected dose per Gram organ (Muscle, 120 min post-injection): 1.521 ± 0.201 % ID/g organ | Residual [^99mTc]Tc-carvedilol percentages of injected dose per Gram in non-targeted organs (Spleen row, 15 min post-injection): 98.118 ± 0.02 % ID/g | Residual [^99mTc]Tc-carvedilol percentages of injected dose per Gram in non-targeted organs (Spleen row, 30 min post-injection): 95.816 ± 0.01 % ID/g | Residual [^99mTc]Tc-carvedilol percentages of injected dose per Gram in non-targeted organs (Spleen row, 60 min post-injection): 93.319 ± 0.05 % ID/g | Residual [^99mTc]Tc-carvedilol percentages of injected dose per Gram in non-targeted organs (Spleen row, 120 min post-injection): 97.701 ± 0.02 % ID/g | [^99mTc]Tc-carvedilol percentages of injected dose per Gram organ (Spleen, 15 min post-injection): 1.852 ± 0.151 % ID/g organ | [^99mTc]Tc-carvedilol percentages of injected dose per Gram organ (Spleen, 30 min post-injection): 4.174 ± 0.019 % ID/g organ | [^99mTc]Tc-carvedilol percentages of injected dose per Gram organ (Spleen, 60 min post-injection): 6.631 ± 0.019 % ID/g organ | [^99mTc]Tc-carvedilol percentages of injected dose per Gram organ (Spleen, 120 min post-injection): 2.279 ± 0.126 % ID/g organ | Residual [^99mTc]Tc-carvedilol percentages of injected dose per Gram in non-targeted organs (Stomach row, 15 min post-injection): 98.807 ± 0.01 % ID/g | Residual [^99mTc]Tc-carvedilol percentages of injected dose per Gram in non-targeted organs (Stomach row, 30 min post-injection): 98.433 ± 0.04 % ID/g | Residual [^99mTc]Tc-carvedilol percentages of injected dose per Gram in non-targeted organs (Stomach row, 60 min post-injection): 95.706 ± 0.03 % ID/g | Residual [^99mTc]Tc-carvedilol percentages of injected dose per Gram in non-targeted organs (Stomach row, 120 min post-injection): 97.717 ± 0.06 % ID/g | [^99mTc]Tc-carvedilol percentages of injected dose per Gram organ (Stomach, 15 min post-injection): 1.193 ± 0.201 % ID/g organ | [^99mTc]Tc-carvedilol percentages of injected dose per Gram organ (Stomach, 30 min post-injection): 1.524 ± 0.259 % ID/g organ | [^99mTc]Tc-carvedilol percentages of injected dose per Gram organ (Stomach, 60 min post-injection): 4.263 ± 0.259 % ID/g organ | [^99mTc]Tc-carvedilol percentages of injected dose per Gram organ (Stomach, 120 min post-injection): 2.239 ± 0.065 % ID/g organ
